Measured values as given in PMC8534150, “New Insights to Regulation of Fructose-1,6-bisphosphatase during Anoxia in Red-Eared Slider, Trachemys scripta elegans” (Biomolecules, 2021).

What was measured:
Test in all cases: coupled phosphoglucoisomerase / glucose-6-phosphate dehydrogenase assay, NADP+ reduction at […] nm
Type in all cases: biochemical, Trachemys scripta elegans
FBPase (control liver) [1] = biological target: T1, FBPase (control liver); conditions: inhibitor, allosteric, pH 7.2 imidazole, 5 mM MgSO4, 0.2 mM NADP+, 22 °C, FBP 0.1 mM as optimal assay
T1 construct: gene FBP1; native, purified from liver of normoxic control turtles (phosphocellulose, CM cellulose); ~37 kDa on SDS-PAGE; band sent for mass spectrometry; tetramer in homology model

FBPase (anoxic liver) [2] = biological target: T2, FBPase (anoxic liver); conditions: inhibitor, allosteric; pH 7.2 imidazole, 5 mM MgSO4, 0.2 mM NADP+, 22 °C; FBP 0.1 mM as optimal assay; enzyme from anoxic liver
T2 construct: gene FBP1; native, purified from liver of 20 h anoxic turtles

FBPase (control liver) [3] = biological target: T1, FBPase (control liver); conditions: activation constant, activator, pH 7.2 imidazole, 5 mM MgSO4, 22 °C
FBPase (anoxic liver) [4] = biological target: T2, FBPase (anoxic liver); conditions: activation constant, activator, pH 7.2 imidazole, 5 mM MgSO4, 22 °C, enzyme from anoxic liver
FBPase (anoxic liver) [5] = system: T2, FBPase (anoxic liver); conditions: pH 7.2 imidazole, 5 mM MgSO4, 0.2 mM NADP+, 22 °C; paper states subsaturating FBP (0.24 µM); enzyme from anoxic liver
FBPase (control liver) [6] = system: T1, FBPase (control liver); conditions: pH 7.2 imidazole, 5 mM MgSO4, 0.2 mM NADP+, 22 °C; paper states subsaturating FBP (0.24 µM)

| IC50 (FBPase (anoxic liver) [2]) [µM] | EC50 (FBPase (control liver) [3]) [µM] | EC50 (FBPase (anoxic liver) [4]) [µM] | Compound | also measured |
| --- | --- | --- | --- | --- |
| 8.3 ± 0.6 | – | – | Nc1ncnc2c1ncn2[C@@H]1O[C@H](COP(=O)(O)OP(=O)(O)O)[C@@H](O)[C@H]1O [ADP] | IC50 (FBPase (control liver) [1]; text b33 prints mM for this value, table µM): 0.0118 ± 0.0003 mM |
| 3.6 ± 0.3 | – | – | Nc1ncnc2c1ncn2[C@@H]1O[C@H](COP(=O)(O)O)[C@@H](O)[C@H]1O [AMP] | IC50 (FBPase (control liver) [1]): 0.0061 ± 0.0001 mM |
| – | – | – | Nc1ncnc2c1ncn2[C@@H]1O[C@H](COP(=O)(O)OP(=O)(O)OP(=O)(O)O)[C@@H](O)[C@H]1O [ATP.Mg] | EC50 (FBPase (control liver) [3]; ATP.Mg 1:1): 144 ± 7 µM; EC50 (FBPase (anoxic liver) [4]; ATP.Mg 1:1): 25 ± 0.9 µM |
| – | 2.85 ± 0.24 | 3.3 ± 0.1 | C[C@H](N)C(=O)O [Alanine] | – |
| – | – | – | O=P(O)(O)OC[C@H]1OC(O)(COP(=O)(O)O)[C@@H](O)[C@@H]1O (stereo partly drawn) [FBP] | Km (FBPase (anoxic liver) [5]): 59.8 ± 5.2 µM; Km (FBPase (control liver) [6]): 26.9 ± 3 µM |
| – | 0.33 ± 0.09 | 3.3 ± 0.2 | C=C(OP(=O)(O)O)C(=O)O [PEP] | – |
